Results reported in patent publication US8039501B2, “Synephrine derivatives useful as anti-inflammatory agents” (Universiteit Gent, priority 2005, dated 2011).

Experiments:
[1] = system: B16BL6 melanoma, PG19 melanoma and Lewis Lung Carcinoma; assay: In vivo melanoma model, subcutaneous tumors in mice; conditions: eight days of treatment with 200 μg; PBS-treated 1.51+/−0.13 g
Experimental: In vivo melanoma model • Cells of B16BL6 melanoma, PG19 melanoma and Lewis Lung Carcinoma are kept in culture in DMEM supplemented with fetal calf serum, antibiotics and L-glutamine. Cells are harvested, washed three times in LPS-free PBS, and brought to a density of 6×10^6/ml (B16BL6) or 20×10^6/ml (PG19, EL4 and LLC). 100 μl of the cell suspension is injected subcutaneously into shaven, right hind limbs of the mice. When the tumors reach a size of 50-70 mm^2, daily treatment is started with dexamethasone (DEX), hydrocortisone (HYDRO), compound A (CpdA) or its analogues (intraperitoneally (i.p.) or in drinking water). DEX, HYDRO are diluted in PBS; CpdA is diluted in 20% ethanol. The smaller and larger diameters of the tumor are measured daily with an electronic caliper. Tumor size index (TSI) is defined in mm^2 as (a)×(b), (a) being the longest diameter of the tumor and (b) the diameter perpendicular to (a). […] Each mouse receives daily either PBS or a specific dose of DEX, ranging from 5 μg to 200 μg. […]. […] Toxicity and efficacy of CpdA and analogues will be evaluated.

[2] = system: multiple myeloma cells U266; assay: MTT test, cell viability of U266 cells; type: cell-based, human; conditions: Homo sapiens, U-266; 10^−4M; serum-free medium; FIG. 2A; read-out: Cell killing / reduction of viability of U266 cells
Experimental: (§1) The MTT test is a standard assay addressing cell toxicity of a compound. It is based on the principle that after 3-4 hours of cell incubation with MTT (3-(4,5-dimethylthiazole-2-yl)-2,5-diphenyl tetrazolium bromide) so-called purple formazan crystals develop in living and early apoptotic cells. Dead cells don't produce formazan crystals.
(§2) Different cell lines were tested. Unless indicated differently, A549 human lung epithelial cells (derived from lung carcinoma) and L929sA murine fibroblast cells were cultured in DMEM with 10% FCS, 100 U/ml penicillin and 100 μg/ml streptomycin. Unless indicated differently, the human multiple myeloma cell lines L363, U266 and MM1.S were cultured in RPMI 1640 with Glutamax-I, supplemented with 10% FCS, 100 U/ml penicillin and 100 μg/ml streptomycin. Cells were seeded at 5000 cells/well (for adherent A549 and L929sA cells) or at 10000 cells/well (for the multiple myeloma lines in suspension) in 96 well plates. Cells were incubated in the presence of the respective synephrine compounds or vehicle (EtOH; for control test) in a final volume of 0.2 ml for 24 or 48 hours at 37° C. Subsequently, 20 μl of MTT solution (5 mg/ml in phosphate-buffered saline) was added to each well. After 4 hours incubation at 37° C., 80 μl of the extraction buffer (10% SDS, 0.01 M HCl) was added. After overnight incubation at room temperature, the optical densities at 590 nm were measured. Results are illustrated in FIGS. 2 to 6 and are expressed as percentage of viable cells as compared to vehicle-treated controls.
(§3) The MTT test was further extended to include alternative synephrine derivatives and a range of multiple myeloma cell lines for which the results are illustrated by FIGS. 3A, 3B and 4A. Human multiple myeloma cell lines L363, U266 and MM1.S were cultured in RPMI 1640 with Glutamax-I, supplemented with 10% FCS, 100 U/ml penicillin and 100 μg/ml streptomycin. Cells were seeded at 10000 cells/well in 96 well plates. Cells were incubated in the presence of test compounds or vehicle in a final volume of 0.2 ml for 24 or 48 hours at 37° C. The test compounds included in the test were the synephrine derivatives CpdA, Naphth, Benz and Isobut, and DEX as a comparative example. Subsequently, 20 μl of MTT solution (5 mg/ml in phosphate-buffered saline) was added to each well. After 4 hours incubation at 37° C., 80 μl of the extraction buffer (10% SDS, 0.01 M HCl) was added. After 48 hours incubation at room temperature, the optical densities at 590 nm were measured. Results are expressed as percentage of viable cells as compared to vehicle-treated controls.

MM1.S cell line = assay: MTT test, cell viability of MM1.S cells; type: cell-based, human; conditions: Homo sapiens, MM1.S; 10^−4 M; 10% FCS; FIG. 4A; read-out: Inhibition of MM1.S cell viability
Experimental: as §1, §2, §3

[3] = MTT test, cell viability of L929sA fibroblasts; type: cell-based, murine; conditions: mouse, L929sA fibroblast cells; 10^−4 M; 48 hours; FIG. 5B; read-out: Block of L929sA cell viability
Experimental: as §1, §2
In a further MTT test, the activity of the synephrine derivatives on the inhibition of cell viability of non-immune cells was measured. […] Tests were performed for 24 hours and for 48 hours. The results are illustrated by FIGS. 5A and 5B for L929 cells, and by FIGS. 6A and 6B for A549 cells. It was observed that CpdA at 10^−5 M blocked cell viability of L929sA and A549 for not more than 10%.

MCF7 breast cancer cells = conditions: 10^−6 M
Experimental: In further experiments, nylon arrayfilter hybridization experiments were performed. cDNA array analyses were carried out according to the instructions of the manufacturer (SuperArray Simplicity GEArray™ KIT) on the cDNA arrays cancer pathway finder and stress and toxicity array. Total RNA, obtained by the protocol as described herein above, was used as a template for [α−^33P]-cDNA probe synthesis using the following steps:
A second array hybridization experiment was performed on Human Stress and Toxicity Pathway Finder GEarray Q series. The same protocol was followed as for the array hybridization experiment on the Human Cancer Pathway Finder described herein above.

[4] = Serum ELISA of osteoclast and osteoblast markers in DBA/1 mice; conditions: 62.5 μg daily, 8 day treatment; FIG. 21A
Source text: DBA/1 mice—Male 8- to 12-wk-old DBA/1 mice were purchased from Janvier and housed following institutional guidelines. All animal procedures were approved by the institutional animal care and ethics committee. […] The human IL-6 and IL-8 cytoset were purchased from BioSource International, Inc. For the detection of TRAP5b in DBA/1 mice serum we used the Mouse TRAP Assay, purchased from Immunodiagnostic systems limited. The osteocalcin EIA kit was purchased from Biomedical Technologies, Inc. All assays were performed according to the manufacturer's instructions.

Levels of cyp1A1, FMO1, HMOX2, ATM, bcl2L1, casp1 (MCF7 breast cancer cells): increases levels | TRAP5b in mouse serum [4]: increase of TRAP5b in mouse serum
Compound: C[C@@H]1C[C@H]2[C@@H]3CCC4=CC(=O)C=C[C@]4(C)[C@@]3(F)[C@@H](O)C[C@]2(C)[C@@]1(O)C(=O)CO [DEX, dexamethasone, reference compound]
Mean weight of tumors [1]: 0.59 ± 0.04 g | cytotoxicity at 100 µM [2]: 10% | cytotoxicity at 100 µM (MM1.S cell line): 30% | cytotoxicity at 48 h [3]: 30%
